Common to all, as to assay: growth of human tumour cells (NCI), 48 h
Test [1] relates to MALME-3M melanoma.
In test [2] the test system is HL-60(TB) leukemia.
The test system of test [3] is LOX IMVI melanoma.
Test [4] concerns HCT-15 colon.
The test system of test [5] is TK-10 renal.
Test [6] deals with UACC-257 melanoma.
Test [7] concerns MCF7 breast.
Test [8] relates to SR leukemia.
In test [9] the test system is HCT-116 colon.
In test [10] the test system is NCI/ADR-RES ovarian.
For test [11], the system named is UACC-62 melanoma.
For test [12], the system named is UO-31 renal.

The source of these data is PubChem BioAssay (NCI).

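Exposure lasted 48 hours, with cells grown in 96-well plates and compounds tested at five concentrations. TGI: total growth inhibition.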

`CCC(CCCC[C@@H]1CC[C@H]2CC(=O)C[C@@H]12)OC` (stereo partly specified): the TGI in test [1], in test [2], in test [3], in test [4], in [5] and in [6] was over 100 µM throughout. In addition, the TGI in test [7], in test [8], in [9], in test [10] and in test [11] was over 100 µM each time.
For `C=CC[C@H]1[C@H](O[Si](C)(C)C(C)(C)C)C=CC(=O)[C@@H]1CC(=O)N(Cc1ccccc1)Cc1ccccc1`, the TGI amounted to 41.2 µM in test [12]; 36.5 µM in test [2]; 26.9 µM in test [3]; 35.6 µM in test [4]; 85.6 µM in [5]; 65.8 µM in test [6]. Moreover, the TGI in test [7] was over 100 µM; in [8], over 100 µM; in test [9] it was 54.5 µM; in test [10], 80.6 µM; in test [11], over 100 µM.
Regarding `S=C1N=C(Cl)C2(NN1)c1ccccc1-c1ccccc12`, the TGI in test [1], in test [12], in test [2], in test [3], in test [4] and in test [5] was over 10 µM in each case. The TGI in test [6], in [7], in test [8], in [10] and in test [11] was over 10 µM each time.
`CC(=O)Nc1ccc2[nH]c(-c3cccc(F)c3)cc(=O)c2c1`: the TGI is over 100 µM in test [1]; over 82.2 µM in test [12]; 80.7 µM in [2]; over 100 µM in [4]; over 100 µM in [5]; over 100 µM in [6]. The TGI is over 100 µM in test [7], over 100 µM in test [8], 21.2 µM in test [10] and over 31 µM in test [11].
On to `COCc1cc2c(cc1/C=C/[N+](=O)[O-])OCO2`, for which the TGI in test [12] was 30.9 µM; in test [2], 85.6 µM; in [3], 67.9 µM; in [4], 36.8 µM; in test [5], 30.8 µM; in test [6], 30.8 µM. Further, the TGI was 48.9 µM in [7]; over 100 µM in [8]; 34 µM in test [9]; 47 µM in test [10]; 32 µM in test [11].
Take `COc1ccc2c(c1)c1c(n2CCN2CCCCC2)-c2ccccc2CC1`: the TGI in test [1] amounted to 28.3 µM; in test [12], 26.1 µM; in test [3] it was 40.4 µM; in test [4] it was 24.5 µM; in test [5], 27.6 µM; in test [6], 32.1 µM. The TGI worked out at 30.2 µM in test [7], 42.4 µM in test [8], 31 µM in [9] and 33.2 µM in [10].
With `O=c1oc2ccccc2n1CCN1CCCCC1`, the TGI in [1], in test [2], in test [3], in test [4], in [5] and in [6] was over 100 µM in each case. Further, the TGI in test [7], in [8], in [9], in test [10] and in [11] was over 100 µM each time.
With `CC(C)C1OC(=O)/C=C/C=C/C=C/C=C/C=C/CC(O)CC(O)CC(O)CC(O)CC(O)CC(O)CC(O)CC(O)/C=C/C1C` (stereo unspecified), the TGI in [1], in [12], in test [2], in test [3], in test [4] and in [5] was over 100 µM in each case. Also, the TGI in [6], in test [7], in test [8], in [9] and in test [10] was over 100 µM throughout.
Turning to `Cc1nnc2n1-c1ccccc1C(=S)N1CSCC21` (stereo unspecified), the TGI in test [1], in test [12], in test [3], in test [4], in test [5] and in test [6] was over 100 µM each time. Moreover, the TGI in test [7], in test [8], in test [9], in test [10] and in test [11] was over 100 µM in each case.
As to `CC1(C)CC(=O)c2c(nc3ccc4ccccc4c3c2-c2ccc(NC(=O)CCC(=O)Nc3ccc(-c4c5c(nc6ccc7ccccc7c46)CC(C)(C)CC5=O)cc3)cc2)C1`, the TGI in [12], in [2], in test [3], in test [5], in [6] and in [7] was over 100 µM throughout. In addition, the TGI in [8], in test [9] and in [10] was over 100 µM in each case.
For `O=C(CC(C(=O)c1ccoc1)c1ccco1)c1ccco1` (stereo unspecified), the TGI in test [12], in [2], in test [3], in [4], in [5] and in test [6] was over 100 µM in each case. Also, the TGI in [7], in [8], in [9], in test [10] and in test [11] was over 100 µM throughout.
Take `COc1cc2c(cc1OC)CC(N=[N+]=[N-])c1cc(OC)c(OC)cc1/C=C\2` (stereo unspecified): the TGI in [12], in test [2], in test [3], in test [4], in [5] and in test [6] was over 100 µM in each case. The TGI in test [7], in test [8], in test [9], in test [10] and in [11] was over 100 µM throughout.
For the molecule `CCOc1cc(NC(C)=O)ccc1C(=O)NN1C(=O)/C(=C/c2cc(OC)c(OC)c(OC)c2)N=C1c1ccccc1`, the TGI in test [1], in [12], in [2], in [3], in test [4] and in test [6] was over 100 µM each time. The TGI in test [7], in test [8], in test [9], in [10] and in test [11] was over 100 µM each time.
On to `C#C[C@]1(O)CC[C@H]2[C@@H]3CCc4cc(OC(=O)c5cccc6cc7ccccc7nc56)ccc4[C@H]3CC[C@@]21C`, for which the TGI in test [1] is 34.7 µM; in test [2], over 100 µM; in test [3], 66 µM; in [4] it was over 100 µM; in [6], over 100 µM; in test [7] it was over 100 µM. The TGI was over 100 µM in test [8], 80.1 µM in test [9], over 100 µM in test [10] and 80.4 µM in test [11].
Take `CCC1C(c2cc(OC)c(OC)c(OC)c2)c2cc3c(cc2OC1N1CCOCC1)OCO3` (stereo unspecified): the TGI was 52.6 µM in [1]; 17.5 µM in test [12]; 10.5 µM in test [3]; over 100 µM in test [4]; 55.5 µM in [6]; 15.5 µM in test [7]. In addition, the TGI in test [8] is over 100 µM; in test [9], 13.4 µM; in [10] it was over 100 µM; in test [11] it was 24.7 µM.
On to `COc1cc(COC(=O)N2CCC2C(=O)O)c([N+](=O)[O-])cc1OC` (stereo unspecified), for which the TGI in test [1], in test [12], in [2], in test [4], in test [5] and in [6] was over 100 µM throughout. Moreover, the TGI in [7], in test [8], in [9], in test [10] and in test [11] was over 100 µM each time.
In the case of `CNC1=CC(=O)C2=C(C1=O)[C@H]1CC[C@]3(C)C(=O)CC[C@H]3[C@@H]1CC2`, the TGI in test [12] is 49.2 µM; in test [3], 23.7 µM; in test [4] it was 27.5 µM; in test [5] it was over 100 µM; in [6], 28.8 µM; in [7], 47.5 µM. For the same molecule, the TGI was over 60.8 µM in test [8], 35.7 µM in test [9], 42.1 µM in test [10] and 31.9 µM in [11].
With `COC(=O)c1csc(-c2nc(CCNC(=O)OC(C)(C)C)sc2Br)n1`, the TGI in test [1], in test [12], in test [2], in [4], in test [5] and in test [6] was over 100 µM throughout. Further, the TGI in [7], in [8], in [9], in [10] and in test [11] was over 100 µM each time.
For the molecule `Cc1cccc(NC(=S)N=Nc2c(O)[nH]c3ccccc23)c1`, the TGI in test [1], in test [12], in [2], in [3], in test [4] and in [6] was over 100 µM each time. Also, the TGI in [7] is over 100 µM; in [8], over 100 µM; in test [9], over 100 µM; in test [10], 85.9 µM; in [11], over 100 µM.
Take `N/C(=N/n1c(=S)[nH]c2ccccc2c1=O)Nn1c(=S)[nH]c2ccccc2c1=O`: the TGI was 45.6 µM in test [1]; 27.3 µM in test [12]; 46 µM in test [3]; 55.5 µM in test [4]; over 100 µM in [5]; over 100 µM in test [6]. The TGI in test [7] was over 100 µM; in test [8], 52 µM; in test [9], 30.4 µM; in test [10], over 100 µM; in test [11] it was over 100 µM.
Turning to `Cn1c(-c2cccs2)cc(-c2cccs2)c1-c1ccsc1`, the TGI in test [12], in test [2], in [3], in test [4], in [5] and in test [6] was over 100 µM in each case. Besides, the TGI in test [7], in [8], in [9], in [10] and in test [11] was over 100 µM each time.
Turning to `Cc1ccc(N=C2C(=O)C3=C(OC(C)(C)CC3)c3ccccc32)cc1`, the TGI in test [1] is 1.7 µM; in [12] it was 1.96 µM; in test [2], 3.21 µM; in test [5] it was 4.86 µM; in test [6] it was 1.72 µM; in test [7], 1.23 µM. Further, the TGI in [8] worked out at 1.6 µM; in [9] it was 1.05 µM; in [10], 1.75 µM; in test [11], 2.88 µM.
Consider `CC(C)CCn1c(=O)c2c(=O)[nH][nH]c2c2ccccc21`, for which the TGI in test [1], in [12], in test [2], in test [3], in test [4] and in [5] was over 100 µM each time. In addition, the TGI in test [6], in test [7], in [8], in test [9] and in [10] was over 100 µM throughout.
As to `COc1ccc2c3c1OC1c4[nH]c5ccccc5c4CC4(O)C(C2)N(C)CCC314` (stereo unspecified), the TGI was 28.1 µM in test [12]; 52 µM in [3]; over 100 µM in [4]; 50.2 µM in [5]; 34.1 µM in test [6]; 60.4 µM in test [7]. For the same molecule, the TGI in test [8] was 37 µM; in test [9], over 100 µM; in test [10] it was over 100 µM; in test [11], 57.3 µM.
For `COc1ccc(CCNC(=O)Cc2cc(OC)c(OC)cc2CO)cc1OC`, the TGI in test [12], in test [2], in test [3], in test [4], in test [5] and in test [6] was over 100 µM in each case. Further, the TGI in test [7], in test [8], in test [9], in [10] and in [11] was over 100 µM throughout.
